In US10689365B2, “Substituted 2-alkylimidazolylcarboxamides as pesticides” (Bayer CropScience Aktiengesellschaft, priority 2016, dated 2020):
Like-named read-outs stand apart in the source and are kept apart here.

What was measured:
Myzus persicae [1] = experiment: Myzus persicae - spray test (Chinese cabbage leaf discs); format: in vivo; details: application rate 500 g/ha, after 5-6 days; for pest or weed control at 500 g/ha: Myzus persicae, foliar, read-out: efficacy
Protocol: Myzus persicae—Spray Test
Solvent: 78 parts by weight of acetone • • 1.5 parts by weight of dimethylformamide
(§1) Emulsifier: alkylaryl polyglycol ether
(§2) To produce a suitable active compound preparation, 1 part by weight of active compound is dissolved using the stated parts by weight of solvent and made up with water containing an emulsifier concentration of 1000 ppm until the desired concentration is attained. To produce further test concentrations, the formulation is diluted with emulsifier-containing water.
Discs of Chinese cabbage leaves (Brassica pekinensis) infested by all stages of the green peach aphid (Myzus persicae) are sprayed with an active ingredient formulation of the desired concentration.
After 5-6 days, the efficacy in % is determined. 100% means that all the aphids have been killed; 0% means that no aphids have been killed.

Myzus persicae [2] = experiment: Myzus persicae - oral test; format: in vivo; details: application rate 20 ppm, after 5 days; for pest or weed control at 20 ppm: Myzus persicae, po, 120 h, read-out: efficacy
Protocol: (§3) Solvent: 100 parts by weight of acetone
(§4) To produce a suitable preparation of active compound, 1 part by weight of active compound is dissolved using the specified parts by weight of solvent and made up with water until the desired concentration is attained.
(§5) 50 μl of the active compound preparation are transferred into microtitre plates and made up to a final volume of 200 μl with 150 μl of IPL41 insect medium (33%+15% sugar). Subsequently, the plates are sealed with parafilm, which a mixed population of green peach aphids (Myzus persicae) within a second microtitre plate is able to puncture and imbibe the solution through it.
After 5 days, the efficacy in % is determined. 100% means that all the aphids have been killed; 0% means that no aphids have been killed.

[3] = log P by HPLC on reversed-phase (C18) columns, OECD Guideline 117; format: physicochemical; details: for chromatographic logP: reversed-phase (C18) HPLC column
Protocol: The log P values were determined in accordance with OECD Guideline 117 (EC Directive 92/69/EEC) by HPLC (high-performance liquid chromatography) using reversed-phase (RP) columns (C18), by the following methods:
[a] The LC-MS determination in the acidic range was carried out at pH 2.7 with 0.1% aqueous formic acid and acetonitrile (contains 0.1% formic acid) as mobile phases; linear gradient from 10% acetonitrile to 95% acetonitrile.
[b] LC-MS determination in the neutral range was carried out at pH 7.8 with 0.001 molar aqueous ammonium hydrogencarbonate solution and acetonitrile as mobile phases; linear gradient from 10% acetonitrile to 95% acetonitrile.

Myzus persicae [4] = experiment: Myzus persicae - spray test (MYZUPE), Chinese cabbage leaf discs; format: in vivo; details: foliar; for percent efficacy (aphid mortality) at 20 g/ha / Emax at 20 g/ha: 20 g of ai/ha; for percent efficacy (aphid mortality) at 100 g/ha: 100 g of ai/ha; for Emax at 20 g/ha: read-out: % efficacy
Protocol: Myzus persicae—Spray Test (MYZUPE)
Solvent: 78.0 parts by weight of acetone • • 1.5 parts by weight of dimethylformamide
as §1, §2
Discs of Chinese cabbage leaves (Brassica pekinensis) infested by all stages of the green peach aphid (Myzus persicae) are sprayed with an active compound preparation of the desired concentration.
(§6) After the desired period of time, the efficacy in % is determined. 100% means that all the aphids have been killed; 0% means that no aphids have been killed.

Myzus persicae [5] = experiment: Myzus persicae - oral test (MYZUPE O); format: in vivo; details: read-out: % efficacy
Protocol: Myzus persicae—Oral Test (MYZUPE O)
as §3, §4, §5, §6

Myzus persicae [6] = experiment: Myzus persicae - drench test (MYZUPE D), Savoy cabbage in soil; format: in vivo; details: 240 h, 10 dat, read-out: % efficacy
Protocol: Myzus persicae—Drench Test (MYZUPE D)
To produce a suitable active compound preparation, 1 part by weight of active compound is mixed with the specified amounts of solvent and emulsifier, and the concentrate is diluted with water to the desired concentration, it being necessary to include the volume of soil which is drenched in the calculation. It should be ensured that a concentration of 40 ppm of emulsifier in the soil is not exceeded. To produce further test concentrations, water is used for dilution.
Savoy cabbage (Brassica oleracea) in pots with soil and infested by all stages of the green peach aphid (Myzus persicae) is watered with an active compound preparation of the desired concentration.
as §6

Aphis gossypii = Aphis gossypii - spray test (APHIGO S), cotton plants; format: in vivo; details: 144 h, 6 dat, read-out: % efficacy
Protocol: Aphis gossypii—Spray Test (APHIGO S)
Solvent: 14 parts by weight of dimethylformamide
as §1
To produce a suitable active compound preparation, 1 part by weight of active compound is dissolved using the stated parts by weight of solvent and made up with water containing an emulsifier concentration of 1000 ppm until the desired concentration is attained. To produce further test concentrations, the formulation is diluted with emulsifier-containing water. If the addition of ammonium salts or/and penetrants is required, these are each added in a concentration of 1000 ppm to the formulation solution.
Cotton plants (Gossypium hirsutum) heavily infested by the cotton aphid (Aphis gossypii) are sprayed with an active ingredient formulation of the desired concentration.
After the desired time, the kill in % is determined. 100% means that all the aphids have been killed; 0% means that no aphids have been killed.

[7] = neutral range, pH 7.8, aqueous ammonium hydrogencarbonate/acetonitrile, read-out: logP[n]
[8] = acidic range, pH 2.7, 0.1% aqueous formic acid/acetonitrile
[9] = neutral range, pH 7.8, aqueous ammonium hydrogencarbonate/acetonitrile
[10] = acidic range, pH 2.7, 0.1% aqueous formic acid/acetonitrile, read-out: logP[a]

| Compound | pest or weed control at 500 g/ha (Myzus persicae [1]) [%] | pest or weed control at 20 ppm (Myzus persicae [2]) [%] | chromatographic logP [3, 7] | efficacy (Myzus persicae [1]) [%] | efficacy (Myzus persicae [2]) [%] | logP[a] [3, 8] | logP[n] [3, 9] | percent efficacy (aphid mortality) at 100 g/ha (Myzus persicae [4]; 120 h, 5 dat) [%] | Emax at 4 ppm (Myzus persicae [5]; 120 h, 5 dat) [%] | chromatographic logP [3, 10] | also measured |
| --- | --- | --- | --- | --- | --- | --- | --- | --- | --- | --- | --- |
| COCc1ncc(C(=O)N(C)c2cccnc2)n1C [Example I-1-22, 2-(Methoxymethyl)-N,1-dimethyl-N-(pyridin-3-yl)-1H-imidazole-5-carboxamide] | 100 | 100 | 0.63 | – | – | – | – | – | – | – | – |
| CN(C(=O)c1cnc(COCC2CC2)n1C)c1cccnc1 [Example I-1-23] | – | – | – | 100 | 100 | 0.67 | 1.29 | – | – | – | – |
| CN(C(=O)c1cnc(COc2cccc(Cl)c2)n1C)c1cccnc1 [Example I-1-24] | – | – | – | 100 | 90 | 1.69 | 2.02 | – | – | – | – |
| CN(C(=O)c1cnc(COCc2ccccc2)n1C)c1cccnc1 [Example I-1-25] | – | – | – | 90 | 100 | 1.10 | 1.63 | – | – | – | – |
| CCSCc1ncc(C(=O)N(C)c2cccnc2)n1C [Example I-1-27] | 90 | 100 | 1.18 | – | – | – | – | 90 | 100 | 0.46 | percent efficacy (aphid mortality) at 20 g/ha (Myzus persicae [4]; 120 h, 5 dat): 90%; Emax at 0.16 ppm (Myzus persicae [6]): 98%; Emax at 0.8 ppm (Aphis gossypii): 98%; Emax at 4 ppm (Aphis gossypii; 4 ppm): 100% |
| COC(=O)CSCc1ncc(C(=O)N(C)c2cccnc2)n1C [Example I-1-37] | 100 | 100 | 1.04 | – | – | – | – | – | 100 | 0.35 | – |
| CN(C(=O)c1cnc(CSc2ccccc2)n1C)c1cccnc1 [Example I-1-38] | 90 | 90 | 1.73 | – | – | – | – | – | 100 | 1.14 | Emax at 0.8 ppm (Aphis gossypii): 60%; percent kill (mortality) of aphids at a fixed dose at 4 ppm (Aphis gossypii; 4 ppm): 100% |
| CN(C(=O)c1cnc(CSc2ccccc2Cl)n1C)c1cccnc1 [Example I-1-39] | 90 | 100 | 1.99 | – | – | – | – | 90 | 100 | 1.41 | percent efficacy (aphid mortality) at 20 g/ha (Myzus persicae [4]; 120 h, 5 dat): 90%; Emax at 0.8 ppm (Aphis gossypii): 30%; Emax at 4 ppm (Aphis gossypii; 4 ppm): 95% |
| CN(C(=O)c1cnc(CSc2cccc(Cl)c2)n1C)c1cccnc1 [Example I-1-40] | 90 | 100 | 2.11 | – | – | – | – | 90 | 100 | 1.55 | – |
| CN(C(=O)c1cnc(CSc2ccc(Cl)cc2)n1C)c1cccnc1 [Example I-1-41] | 90 | 100 | 2.07 | – | – | – | – | 90 | 100 | 1.57 | Emax at 20 g/ha (Myzus persicae [4]; 120 h, 5 dat): 70%; Emax at 0.8 ppm (Aphis gossypii): 35%; Emax at 4 ppm (Aphis gossypii; 4 ppm): 100% |
| CN(C(=O)c1cnc(CSc2ncccn2)n1C)c1cccnc1 [Example I-1-42] | 100 | 100 | 1.01 | – | – | – | – | 70 | 90 | 0.27 | – |
| CN(C(=O)c1cnc(Cn2ccnn2)n1C)c1cccnc1 [Example I-1-46] | 100 | 100 | 0.42 | – | – | – | – | – | – | 0.05 | percent efficacy (aphid mortality) at 20 g/ha (Myzus persicae [4]; 144 h, 6 dat): 90%; percent efficacy (aphid mortality) at 100 g/ha (Myzus persicae [4]; 144 h, 6 dat): 90%; Emax at 4 ppm (Myzus persicae [5]; 144 h, 6 dat): 100% |
| C=Cc1ncc(C(=O)N(CC)c2cccnc2)n1C [Example I-1-56] | – | – | – | 90 | 90 | 0.18 | 1.10 | – | – | – | – |
| CN(C(=O)c1cnc(COc2ccc(Cl)cc2)n1C)c1cccnc1 [Example I-1-62] | – | – | – | 100 | 100 | 1.63 | 2.00 | – | – | – | – |
| CN(C(=O)c1cnc(COCC(F)(F)F)n1C)c1cccnc1 [Example I-1-63] | – | – | – | 90 | 100 | 0.84 | 1.36 | – | – | – | – |
| CCOCc1ncc(C(=O)N(C)c2cccnc2)n1C [Example I-1-64] | – | – | – | 100 | 100 | 0.18 | 0.92 | – | – | – | – |
| CC(C)OCc1ncc(C(=O)N(C)c2cccnc2)n1C [Example I-1-65] | – | – | – | 90 | 100 | 0.42 | 1.20 | – | – | – | – |
| Cc1nc(C(=O)Nc2cccnc2)c[nH]1 [Prior art WO2011/009804 (Ex. 14), reference compound] | – | – | – | – | – | – | – | 0 | 0 | – | percent efficacy (aphid mortality) at 20 g/ha (Myzus persicae [4]; 120 h, 5 dat): 0% |
| O=C(Nc1cccnc1)c1c[nH]cn1 [Prior art WO 2011/009804 (Ex. 13), reference compound] | – | – | – | – | – | – | – | – | – | – | percent efficacy (aphid mortality) at 20 g/ha (Myzus persicae [4]; 144 h, 6 dat): 0%; percent efficacy (aphid mortality) at 100 g/ha (Myzus persicae [4]; 144 h, 6 dat): 0%; Emax at 4 ppm (Myzus persicae [5]; 144 h, 6 dat): 0% |
| Cc1ncc(C(=O)Nc2cccnc2)n1C [reference compound] | – | – | – | – | – | – | – | 70 | – | – | Emax at 20 g/ha (Myzus persicae [4]; 120 h, 5 dat): 0% |
